Legend:
FosAKP = target: T1, FosAKP (Klebsiella pneumoniae, UniProt A0A086IRG1); assay: DTNB ([…] nm) activity assay; crystal structure of complex ([…] Å); assay type: biochemical; conditions: read-out: % inhibition at 5 mM
T1 construct: gene fosA

[1] = system: C[C@@H]1O[C@@H]1P(=O)(O)O; assay: purified protein; assay type: biochemical, Klebsiella pneumoniae; conditions: free enzyme, 15 mM GSH, 0.1 M sodium phosphate pH 8, 100 mM KCl, 0.05 mM MnCl2, 25 °C, also bound in active site of crystal structure
FosAPA = target: T2, FosAPA (Pseudomonas aeruginosa, UniProt Q9I4K6); assay: DTNB ([…] nm) assay of GSH conjugation, time course; assay type: biochemical; conditions: 10 mM Fos, 15 mM GSH, 0.1 M sodium phosphate pH 8, 100 mM KCl, 0.05 mM MnCl2, 25 °C
T2 construct: gene fosA
T2 sequence (Q9I4K6 whole entry): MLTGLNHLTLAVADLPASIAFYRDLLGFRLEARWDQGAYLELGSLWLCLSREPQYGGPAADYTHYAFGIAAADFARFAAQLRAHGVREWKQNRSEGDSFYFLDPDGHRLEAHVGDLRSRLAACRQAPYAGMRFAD

T1 sequence (A0A086IRG1 entry or part of it): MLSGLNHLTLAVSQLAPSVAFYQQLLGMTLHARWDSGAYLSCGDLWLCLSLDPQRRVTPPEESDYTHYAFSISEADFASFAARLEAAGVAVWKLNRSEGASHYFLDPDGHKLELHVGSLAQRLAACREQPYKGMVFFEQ

O=C(O)C(O)C(O)C(=O)O (stereo not drawn) [Tar]
inhibition at 5000 µM (FosAKP): 20.7%

FosAKP (Klebsiella pneumoniae)
Km [1]: 2200 ± 300 µM

C[C@@H]1O[C@@H]1P(=O)(O)O [Fosfomycin, (1R,2S)-epoxypropylphosphonic acid]
DTNB (412 nm) assay of GSH conjugation, time course (FosAPA): time course of Fos conjugation with GSH, catalyzed by FosAPA and FosAKP

Reference: article PMC10779102, “Structural Studies of Klebsiella pneumoniae Fosfomycin-Resistance Protein and Its Application for the Development of an Optical Biosensor for Fosfomycin Determination” (International Journal of Molecular Sciences, 2023)
